Data on 26 compounds can be found in patent US9611252B2 (LifeSci Pharmaceuticals, Inc., priority 2013, dated 2017).

Read-outs that look alike come from different tables or passages of the source.

The assay has as its target human Plasma Kallikrein (Homo sapiens (Human), UniProt P03952). The assay can be described thus: In vitro enzyme inhibition of human plasma kallikrein (PFR-AMC cleavage). The assay is classed as biochemical. Here is the method:
The ability of the compounds disclosed herein to inhibit human plasma kallikrein activity was quantified according to the procedures below.
A 10 mM solution of the test compound was made in DMSO. […] A control tube containing only DMSO is included. 16 μL of each compound test solution was combined with 384 μL of assay buffer (50 mM Tris-HCl pH 7.5, 150 mM NaCl, 0.01% Triton X-100) to yield a “4× test compound buffer stock”.
These solutions are hereby referred to as 4×hPK and 2×PFR-AMC, respectively.
50 μL was removed from this mixture and placed into duplicate wells on a Microfluor 1Black U-bottom microtiter plate (Thermo Scientific). This plate was incubated for 5 minutes at 37° C. To each well, 50 μL of pre-warmed 2×PFR-AMC was added to start the enzymatic reaction. Cleavage of PFR-AMC was monitored in a Biotek Synergy H4 reader set at 37° C. Readings are taken every 43 seconds for 1 hour. […] The IC50 is calculated using the Gen5 (Biotek Instruments).
The ability of the compounds in Table 3 to inhibit human plasma kallikrein activity was determined.

The mark [1] stands for this setting: human plasma kallikrein, Pro-Phe-Arg-AMC substrate, 37° C., read-out: hPK IC50.

Chain of human Plasma Kallikrein (P03952 20-638): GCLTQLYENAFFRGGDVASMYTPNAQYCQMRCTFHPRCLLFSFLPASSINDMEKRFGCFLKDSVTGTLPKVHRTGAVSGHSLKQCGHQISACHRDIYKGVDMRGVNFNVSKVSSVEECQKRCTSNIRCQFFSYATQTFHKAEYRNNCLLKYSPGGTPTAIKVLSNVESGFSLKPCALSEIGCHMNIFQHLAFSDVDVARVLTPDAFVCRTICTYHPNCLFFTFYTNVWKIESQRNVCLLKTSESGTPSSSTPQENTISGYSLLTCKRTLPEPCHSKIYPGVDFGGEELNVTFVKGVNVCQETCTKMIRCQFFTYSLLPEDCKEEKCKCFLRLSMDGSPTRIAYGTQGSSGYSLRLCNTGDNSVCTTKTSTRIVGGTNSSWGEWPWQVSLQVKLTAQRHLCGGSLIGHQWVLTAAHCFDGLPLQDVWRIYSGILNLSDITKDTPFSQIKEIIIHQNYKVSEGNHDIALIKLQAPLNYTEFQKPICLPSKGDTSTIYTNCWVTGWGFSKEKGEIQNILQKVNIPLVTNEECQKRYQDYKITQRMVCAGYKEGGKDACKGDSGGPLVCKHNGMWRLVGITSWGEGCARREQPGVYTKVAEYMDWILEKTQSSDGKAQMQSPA

A word on the IC50: it is the concentration that inhibits the measured activity by half. On to `NC(=O)c1ccc2cc(Cc3cc(C(=O)NCc4cc5c(Cl)c[nH]c5cc4F)ccn3)ccc2n1` [Example 1, 6-((4-(((3-chloro-6-fluoro-1H-indol-5-yl)methyl)carbamoyl)pyridin-2-yl)methyl)quinoline-2-carboxamide], for which the IC50 under setting [1] was 0.1 to 1 µM.
Take `Cc1cc(N)nc(C)c1CNC(=O)c1ccnc(Cc2ccc3nc(C(N)=O)ccc3c2)c1` [Example 2, 6-((4-(((6-amino-2,4-dimethylpyridin-3-yl)methyl)carbamoyl)pyridin-2-yl)methyl)quinoline-2-carboxamide]: the IC50 under setting [1] was in the range of 0.1 to 1 µM.
Still for that read-out and setting: the value for `N#Cc1ccc2cc(Cc3cc(C(=O)NCc4ccc5c(N)nccc5c4)ccn3)ccc2n1` [Example 3, N-((1-aminoisoquinolin-6-yl)methyl)-2-((2-cyanoquinolin-6-yl)methyl)isonicotinamide] was < 0.1 µM.
Consider `NC(=O)c1ccc2cc(Cc3cc(C(=O)NCc4ccc5c(N)nccc5c4)ccn3)ccc2n1` [Example 4], for which the IC50 under setting [1] fell in the range of 0.1 to 1 µM.
The same measure, in the same setting: the result for `N#Cc1cnc2ccc(Cc3cc(C(=O)NCc4cc5c(Cl)c[nH]c5cc4F)ccn3)cc2c1` [Example 5, N-((3-chloro-6-fluoro-1H-indol-5-yl)methyl)-2-((3-cyanoquinolin-6-yl)methyl)isonicotinamide] reads < 0.1 µM.
The same measure, in the same setting: the result for `N#Cc1cnc2ccc(Cc3cc(C(=O)NCc4ccc5c(N)nccc5c4)ccn3)cc2c1` [Example 6, N-((1-aminoisoquinolin-6-yl)methyl)-2-((3-cyanoquinolin-6-yl)methyl)isonicotinamide] reads < 0.1 µM; that for `Cc1cc(N)nc(C)c1CNC(=O)c1ccnc(Cc2ccc3ncc(C#N)cc3c2)c1` [Example 7, N-((6-amino-2,4-dimethylpyridin-3-yl)methyl)-2-((3-cyanoquinolin-6-yl)methyl)isonicotinamide], < 0.1 µM; that for `Nc1nccc2cc(CNC(=O)c3ccnc(Cc4cnc5ccc(F)cc5n4)c3)ccc12` [Example 8, N-((1-aminoisoquinolin-6-yl)methyl)-2-((7-fluoroquinoxalin-2-yl)methyl)isonicotinamide], 0.1 to 1 µM.
`CC(=O)NCc1ccc2cc(Cc3cc(C(=O)NCc4cc5c(Cl)c[nH]c5cc4F)ccn3)ccc2n1` [Example 9, 2-[2-(acetylamino-methyl)-quinolin-6-ylmethyl]-N-(3-chloro-6-fluoro-1H-indol-5-ylmethyl)-isonicotinamide]: the IC50 under setting [1] is 0.1 to 1 µM.
Take `CC(=O)NCc1ccc2cc(Cc3cc(C(=O)NCc4ccc5c(N)nccc5c4)ccn3)ccc2n1` [Example 10, 2-[2-(acetylamino-methyl)-quinolin-6-ylmethyl]-N-(1-amino-isoquinolin-6-ylmethyl)-isonicotinamide]: under setting [1], the concentration for half-maximal inhibition (IC50) lay within 0.1 to 1 µM.
For the compound `CC(=O)NCc1ccc2cc(Cc3cc(C(=O)NCc4c(C)cc(N)nc4C)ccn3)ccc2n1` [Example 11, 2-[2-(acetylamino-methyl)-quinolin-6-ylmethyl]-N-(6-amino-2,4-dimethyl-pyridin-3-ylmethyl)-isonicotinamide], under setting [1], the IC50 was 0.1 to 1 µM.
The same measure, in the same setting: the result for `CS(=O)(=O)c1ccc2ncc(Cc3cc(C(=O)NCc4cc5c(Cl)c[nH]c5cc4F)ccn3)cc2c1` [Example 12, N-((3-chloro-6-fluoro-1H-indol-5-yl)methyl)-2-((6-(methylsulfonyl)quinolin-3-yl)methyl)isonicotinamide] reads < 0.1 µM.
Take `CS(=O)(=O)c1ccc2ncc(Cc3cc(C(=O)NCc4ccc5c(N)nccc5c4)ccn3)cc2c1` [Example 13, N-((1-aminoisoquinolin-6-yl)methyl)-2-((6-(methylsulfonyl)quinolin-3-yl)methyl)isonicotinamide]: the IC50 under setting [1] lay within 0.1 to 1 µM.
For `Cc1cc(N)nc(C)c1CNC(=O)c1ccnc(Cc2cnc3ccc(S(C)(=O)=O)cc3c2)c1` [Example 14, N-((6-amino-2,4-dimethylpyridin-3-yl)methyl)-2-((6-(methylsulfonyl)quinolin-3-yl)methyl)isonicotinamide], the IC50 under setting [1] lay within 0.1 to 1 µM.
For `Cc1cc(N)nc(C)c1CNC(=O)c1ccnc(Cn2ccc3c(Cl)cccc3c2=O)c1` [Example 22, N-(6-Amino-2,4-dimethyl-pyridin-3-ylmethyl)-2-(5-chloro-1-oxo-1H-isoquinolin-2-ylmethyl)-isonicotinamide], the IC50 lay within 0.1 to 1 µM.
Turning to `Cc1cc(N)nc(C)c1CNC(=O)c1ccnc(Cn2ccc3cc(Cl)ccc3c2=O)c1` [Example 23, N-((6-amino-2,4-dimethylpyridin-3-yl)methyl)-2-((6-chloro-1-oxoisoquinolin-2(1H)-yl)methyl)isonicotinamide], under setting [1], the IC50 is 1 to 10 µM.
Consider `Cc1cc(N)nc(C)c1CNC(=O)c1ccnc(Cc2ccc3[nH]cc(Cl)c3c2)c1` [Example 24, N-((6-amino-2,4-dimethylpyridin-3-yl)methyl)-2-((3-chloro-1H-indol-5-yl)methyl)isonicotinamide], for which the IC50 under setting [1] fell in the range of 0.1 to 1 µM.
The same measure, in the same setting: the value for `Cc1cc(N)nc(C)c1CNC(=O)c1ccnc(Cc2ccc3[nH]cc(C)c3c2)c1` [Example 25, N-((6-amino-2,4-dimethylpyridin-3-yl)methyl)-2-((3-methyl-1H-indol-5-yl)methyl)isonicotinamide] was 0.1 to 1 µM; that for `Cc1nc(N)c(C#N)cc1CNC(=O)c1ccnc(Cc2ccc3ncc(Cl)cc3c2)c1` [Example 26, N-((6-amino-5-cyano-2-methylpyridin-3-yl)methyl)-2-((3-chloroquinolin-6-yl)methyl)isonicotinamide] was 1 to 10 µM; that for `Cc1nc(N)c(C(N)=O)cc1CNC(=O)c1ccnc(Cc2ccc3ncc(Cl)cc3c2)c1` [Example 27, 2-amino-5-((2-((3-chloroquinolin-6-yl)methyl)isonicotinamido)methyl)-6-methylnicotinamide] was > 10 µM.
The same measure, in the same setting: the value for `Cc1nc(N)c(Cl)cc1CNC(=O)c1ccnc(Cc2ccc3ncc(Cl)cc3c2)c1` [Example 28, N-((6-amino-5-chloro-2-methylpyridin-3-yl)methyl)-2-((3-chloroquinolin-6-yl)methyl)isonicotinamide] was 1 to 10 µM; that for `Cc1cc(N)ncc1CNC(=O)c1ccnc(Cc2ccc3ncc(Cl)cc3c2)c1` [Example 29, N-((6-amino-4-methylpyridin-3-yl)methyl)-2-((3-chloroquinolin-6-yl)methyl)isonicotinamide] was < 0.1 µM.
For the compound `Nc1ccc(CNC(=O)c2ccnc(Cc3ccc4ncc(Cl)cc4c3)c2)c(C(F)(F)F)n1` [Example 30, N-((6-amino-2-(trifluoromethyl)pyridin-3-yl)methyl)-2-((3-chloroquinolin-6-yl)methyl)isonicotinamide], the IC50 under setting [1] is > 10 µM.
For `O=C(NCc1cc2cn[nH]c2cc1F)c1ccnc(Cc2ccc3ncc(Cl)cc3c2)c1` [Example 32, 2-(3-chloro-quinolin-6-ylmethyl)-N-(6-fluoro-1H-indazol-5-ylmethyl)-isonicotinamide], the concentration for half-maximal inhibition (IC50) under setting [1] lay within 1 to 10 µM.
On the same count and under the same terms, the value for `Nc1noc2cc(CNC(=O)c3ccnc(Cc4ccc5ncc(Cl)cc5c4)c3)ccc12` [Example 36, N-((3-aminobenzo[d]isoxazol-6-yl)methyl)-2-((3-chloroquinolin-6-yl)methyl)isonicotinamide] was 1 to 10 µM.
Take `O=C(NCc1n[nH]c2ccc(Cl)cc12)c1ccnc(Cc2ccc3ncc(Cl)cc3c2)c1` [Example 37, N-(5-chloro-1H-indazol-3-ylmethyl)-2-(3-chloro-quinolin-6-ylmethyl)-isonicotinamide]: under setting [1], the IC50 is < 0.1 µM.
